Assay results published in article PMC7932537, “Quantitative profiling of protease specificity” (PLoS Computational Biology, 2021).

Columns and labels:
Type in all cases: biochemical, human
MMP-2 [1] = test: N-terminomic (TMT) analysis of MMP-treated HEK293 secretome: isotopic enrichment of novel N-termini; conditions: for isotopic enrichment (log2(ratio)): MMP2 cleavages in HEK293 cell proteins, determined by LC-MS/MS, novel N-termini, sections log2(ratio) >3σ, 2σ-3σ, 1σ-2σ, RP above 4.5
Description: (§1) This was done to achieve a reasonable compromise between the false positive and false negative rates based on the statistical model developed by the authors. […] (See Methods for details).
(§2) HEK293 cells were seeded in 150-mm tissue culture dishes (Corning) and grown to confluence. The confluent cultures were washed with PBS several times to remove serum proteins and kept in serum-free DMEM supplemented with 1 μM GM6001 for 72 hours at 37 C, 5% CO2. The conditioned media was centrifuged at 10,000 x g for 30 minutes at 4 C and concentrated ~100-fold using Centricon Plus-70 (AMD Millipore) 3-kDa m.w. cut-off ultrafilter, and the buffer was exchanged to 50 mM HEPES pH 7.0 containing 150 mM NaCl and 10 mM CaCl2 (Reaction Buffer) using a PD-10 desalting column (GE Healthcare). Aliquots containing 240 μg total protein were incubated at 37 C in the presence of 750 nM MMP2 or 9 or the Reaction Buffer alone for 2 hours. Each reaction was carried out in duplicate. The reactions were stopped by addition of 20 mM EDTA and subjected to denaturation/reduction (4M Urea and 10 mM TCEP, 1 h, 22°C) and alkylation (20 mM iodoacetamide, 30 min, 22°C, in dark). […] The TMT-labeled samples were pooled together, and subjected to TCA precipitation (20% TCA, 16 h, 4°C). Each pellet was washed with -20°C acetone, recovered in 50 mM Tris-HCl pH 8.0, and then digested with trypsin/Lys-C (Promega) for 16 h at 37°C. Digestions were stopped with 0.2% TFA and centrifuged to remove insoluble material. The supernatants were then desalted using Sep-Pak C18 cartridge (50 mg), and then lyophilized.
(§3) Dried pooled sample was reconstituted in 20 mM ammonium formate pH ~10 and fractionated using a Waters Acquity BEH C18 column (2.1x 15 cm, 1.7 μm pore size) mounted on an M-Class Ultra Performance Liquid Chromatography (UPLC) system (Waters). […] A total of 32 fractions were collected and pooled in a non-contiguous manner into 16 total fractions. Pooled fractions were dried to completeness in a SpeedVac concentrator prior to mass spectrometry analysis.
(§4) Dried peptide fractions were reconstituted with 2% ACN-0.1% FA and analyzed by LC-MS/MS using a Proxeon EASY nanoLC system (Thermo Fisher Scientific) coupled to a Q-Exactive Plus mass spectrometer (Thermo Fisher Scientific). […] The mass spectrometer was operated in positive data-dependent acquisition mode. MS1 spectra were measured with a resolution of 70,000 (AGC target: 1e6; mass range: 350–1700 m/z).
(§5) The false discovery rate (FDR) filter for spectrum and protein identification was set to 1%. Carbamidomethylation of cysteines was searched as a fixed modification, while oxidation of methionines and N-terminal acetylation were searched as variable modifications. Enzyme was set to trypsin in a semispecific mode and a maximum of two missed cleavages was allowed for searching. To obtain quantification of the TMT-labeled N-termini, two independent searches were performed–one with TMT10plex MS2 N-terminal reporter quantification and the other for quantification of N-terminal and lysine sidechain.

MMP-9 [2] = test: as above; conditions: for isotopic enrichment (log2(ratio)): MMP9 cleavages in HEK293 cell proteins, determined by LC-MS/MS, log2(ratio) range (>3σ, 2σ-3σ, 1σ-2σ)
Description: as §1, §2, §3, §4, §5

MMP-9 [3] = test: Substrate phage display with NGS: relative probability (RP) of P3-P1' tetramer clusters; conditions: RP of matching tetramer of the cleavage site; unique part of MMP9 selectome
MMP-2 [4] = test: as above; conditions: RP of matching tetramer of the cleavage site; unique part of MMP9 selectome
[5] = HEK293 secretome, 750 nM MMP-2, 2 h, 37 C, TMT reporter ratio vs untreated control, LC-MS/MS, duplicate
[6] = HEK293 secretome, 750 nM MMP-9, 2 h, 37 C, TMT reporter ratio vs untreated control, LC-MS/MS, duplicate
[7] = MMP2 cleaved HEK293 proteins, common set of MMP2-9 selectome, LC-MS/MS
[8] = MS detected cleavage sequence, HEK293 proteins, common MMP2-9 selectome
[9] = MMP9, HEK293 proteins, common set of MMP2-9 selectome, LC-MS/MS
[10] = MS detected cleavage sequence, HEK293 proteins, unique part of MMP2 selectome

Substance | isotopic enrichment (log2(ratio)) (acc.to MMP2) (MMP-2 [1]; [5]) | isotopic enrichment (log2(ratio)) (acc.to MMP9) (MMP-9 [2]; [6]) | isotopic enrichment (log2(ratio)) (MMP-9 [2]) | relative probability (RP) (acc.to MMP9) (MMP-9 [3]) | relative probability (RP) (acc.to MMP2) (MMP-2 [4]) | isotopic enrichment (log2(ratio)) (acc.to MMP2) (MMP-2 [1]; [7]) | isotopic enrichment (log2(ratio)) (acc.to MMP2) (MMP-2 [1]; [8]) | isotopic enrichment (log2(ratio)) (acc.to MMP9) (MMP-9 [2]; [9]) | isotopic enrichment (log2(ratio)) (acc.to MMP9) (MMP-9 [2]; [8]) | further results
KHIYY-ITGETK [MS detected cleavage site in Heat shock protein HSP 90-alpha (P07900)] | 0.7225 log2(ratio) | 3.338 log2(ratio) | 3.338 | 14.54 | 0.69 |  |  |  |  | 
DSTMN-MLGGGG | 0.8797 log2(ratio) | 1.618 log2(ratio) | 1.618 | 6.67 | 0 |  |  |  |  | 
FCPMA-AHEEIC [MS detected cleavage site in Fibronectin (P02751)] | 0.5261 log2(ratio) | 1.774 log2(ratio) | 1.774 | 16.94 | 3.68 |  |  |  |  | 
KSIYY-ITGESK [MS detected cleavage site in Heat shock protein HSP 90-beta (P08238)] | 0.3785 log2(ratio) | 3.962 log2(ratio) | 3.962 | 14.54 |  |  |  |  |  | 
LPPDH-LNGVKL | 1.257 log2(ratio) | 2.07 log2(ratio) | 2.07 | 13.06 | 2.08 |  |  |  |  | 
VVPWP-HVEGVE [MS detected cleavage site in N-acetylgalactosaminyltransferase 7 (Q86SF2)] | 1.195 log2(ratio) | 3.516 log2(ratio) | 3.516 | 15.08 | 0 |  |  |  |  | 
VCPRG-YVTSTD |  |  | 5.174 |  |  | 2.108 | 2.108 log2(ratio) | 5.174 | 5.174 log2(ratio) | 
LFIGG-LSFETT |  |  |  |  |  |  |  |  |  | isotopic enrichment (log2(ratio)) (acc.to MMP2) (MMP-2 [1]; [10]): 2.3505 log2(ratio); isotopic enrichment (log2(ratio)) (acc.to MMP9) (MMP-9 [2]; [10]): 1.4957 log2(ratio)
VAAKN-LQEAEE |  |  | 2.192 |  |  | 1.485 | 1.485 log2(ratio) | 2.192 | 2.192 log2(ratio) | 
ARPNS-MVVEHP |  |  | 3.297 |  |  | 2.409 | 2.409 log2(ratio) | 3.297 | 3.297 log2(ratio) | 
VLPVN-VTDYCQ |  |  | 3.756 |  |  |  | 0.7225 log2(ratio) |  | 3.756 log2(ratio) | 
LDVGG-LQETDK |  |  | 1.718 |  |  | 3.076 | 3.076 log2(ratio) | 1.718 | 1.718 log2(ratio) | 
SSAAA-LSLCEG |  |  |  |  |  | 1.036 |  | 0.3785 |  | isotopic enrichment (log2(ratio)) (MMP-2 [1]): 1.036 log2(ratio)
FSVSS-LAEGSV |  |  |  |  |  | 1.257 |  | 1.22 |  | isotopic enrichment (log2(ratio)) (MMP-2 [1]): 1.257 log2(ratio)
APPAA-VAAVAG |  |  | 1.731 |  |  |  | 2.4957 log2(ratio) |  | 1.731 log2(ratio) | 
MVPRA-VYLPNC |  |  | 2.491 |  |  | 1.989 | 1.989 log2(ratio) | 2.491 | 2.491 log2(ratio) | 
QQPFA-SVMTDE [MS detected cleavage site in Semaphorin-3D (O95025)] | 0.2016 log2(ratio) | 2.583 log2(ratio) | 2.583 | 24.05 | 3.01 |  |  |  |  | 
NHIRY-VISQGN [MS detected cleavage site in Fibrillin-2 (P35556)] | 1.367 log2(ratio) | 3.134 log2(ratio) | 3.134 | 10.4 | 0.96 |  |  |  |  | 
KPPRL-VGGPMD [MS detected cleavage site in Cystatin-C (P01034)] | 0.8156 log2(ratio) | 1.9855 log2(ratio) | 1.9855 | 7.12 | 0.07 |  |  |  |  | 
GRTLG-LYGKDQ |  |  | 3.7845 |  |  | 2.467 | 2.467 log2(ratio) | 3.7845 | 3.7845 log2(ratio) | 
GKPFK-IQVLVE [MS detected cleavage site in Galectin-3 (P17931)] | 0.7991 log2(ratio) | 1.459 log2(ratio) | 1.459 | 34.84 | 1.13 |  |  |  |  | 
MSPQL-LYDAAP |  |  | 1.465 |  |  |  | 0.5656 log2(ratio) |  | 1.465 log2(ratio) | 
EGPYS-ISVLYG |  |  |  |  |  | 1.176 |  | 0.9411 |  | isotopic enrichment (log2(ratio)) (MMP-2 [1]): 1.176 log2(ratio)
YRPVA-VALDTK |  |  | 2.604 |  |  | 1.934 | 1.934 log2(ratio) | 2.604 | 2.604 log2(ratio) | 
MEPVA-HFGLGK |  |  | 1.731 |  |  |  | 0.3448 log2(ratio) |  | 1.731 log2(ratio) | 
EAPRP-YSKQVS |  |  | 1.531 |  |  | 1.239 | 1.239 log2(ratio) | 1.531 | 1.531 log2(ratio) | 
SYAGS-LAEPYE |  |  |  |  |  | 1.521 |  | 0.9635 |  | isotopic enrichment (log2(ratio)) (MMP-2 [1]): 1.521 log2(ratio)
SHLGR-YLAADK |  |  |  |  |  |  |  |  |  | isotopic enrichment (log2(ratio)) (acc.to MMP2) (MMP-2 [1]; [10]): 2.483 log2(ratio); isotopic enrichment (log2(ratio)) (acc.to MMP9) (MMP-9 [2]; [10]): -1.0291 log2(ratio)
DMIDN-LLSPDL |  |  |  |  |  |  |  |  |  | isotopic enrichment (log2(ratio)) (acc.to MMP2) (MMP-2 [1]; [10]): 1.245 log2(ratio); isotopic enrichment (log2(ratio)) (acc.to MMP9) (MMP-9 [2]; [10]): 1.029 log2(ratio)
ADIAF-LIDGSF |  |  |  |  |  | 1.124 |  | 0.8797 |  | isotopic enrichment (log2(ratio)) (MMP-2 [1]): 1.124 log2(ratio)
